Measurements reported in patent US7727980B2, “Tricyclic androgen receptor modulator compounds and methods” (priority 2001, dated 2010).
Read-outs that look alike come from different tables or passages of the source.

Legend:
[1] = biological target: T1, human AR (Homo sapiens, UniProt P10275); test: AR whole cell competitive binding assay (3H-DHT), transfected COS-1 cells; set-up: expressed in transfected cells; transient transfection with pRShAR; conditions: COS-1 cells, 1 nM 3H-DHT, Cheng-Prusoff from IC50
T1 sequence (P10275 1-920): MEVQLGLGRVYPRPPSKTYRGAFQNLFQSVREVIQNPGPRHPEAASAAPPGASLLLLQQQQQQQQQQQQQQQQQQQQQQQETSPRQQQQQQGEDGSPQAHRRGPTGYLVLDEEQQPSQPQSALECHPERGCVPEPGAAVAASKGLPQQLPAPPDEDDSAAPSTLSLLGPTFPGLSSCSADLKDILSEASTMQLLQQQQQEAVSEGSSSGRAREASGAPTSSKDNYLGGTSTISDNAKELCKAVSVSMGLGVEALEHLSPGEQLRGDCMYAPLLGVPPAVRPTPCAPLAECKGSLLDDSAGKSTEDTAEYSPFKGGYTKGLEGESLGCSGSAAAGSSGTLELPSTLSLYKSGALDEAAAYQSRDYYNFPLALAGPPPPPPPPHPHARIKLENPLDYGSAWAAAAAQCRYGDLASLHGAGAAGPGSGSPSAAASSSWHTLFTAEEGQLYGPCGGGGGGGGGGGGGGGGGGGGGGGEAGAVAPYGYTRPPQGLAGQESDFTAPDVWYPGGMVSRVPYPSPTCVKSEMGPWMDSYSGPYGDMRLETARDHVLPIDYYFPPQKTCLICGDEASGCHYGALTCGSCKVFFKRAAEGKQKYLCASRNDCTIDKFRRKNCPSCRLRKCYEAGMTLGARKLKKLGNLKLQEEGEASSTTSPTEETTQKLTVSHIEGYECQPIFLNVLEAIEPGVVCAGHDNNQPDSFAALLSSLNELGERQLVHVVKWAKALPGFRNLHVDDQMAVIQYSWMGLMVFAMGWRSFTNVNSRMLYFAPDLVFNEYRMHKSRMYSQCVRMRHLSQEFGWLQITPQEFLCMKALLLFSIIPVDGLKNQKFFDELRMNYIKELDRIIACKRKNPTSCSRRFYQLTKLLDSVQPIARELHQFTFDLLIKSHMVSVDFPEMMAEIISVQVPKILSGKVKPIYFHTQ
Protocol: AR Binding: For the whole cell binding assay, COS-1 cells in 96-well microtiter plates containing DMEM-10% FBS were transfected as described above with the following plasmid DNA: pRShAR (2 ng/well), pRS-β-Gal (50 ng/well) and pGEM (48 ng/well). Six hours after transfection, media was removed, the cells were washed with PBS and fresh media was added. The next day, the media was changed to DMEM-serum free to remove any endogenous ligand that might be complexed with the receptor in the cells.
Three replicates were used for each sample. […] The remaining media was removed, the cells were washed three times with PBS to remove unbound ligand and cells were lysed with a Triton X-100-based buffer.
For the saturation analyses, the difference between the total binding and the nonspecific binding, normalized by the β-Gal rate, was defined as specific binding. […] The Ki values were determined by application of the Cheng-Prusoff equation to the IC50 values, where: […]
After correcting for non-specific binding, IC50 values were determined. […] The IC50 value was determined graphically from a log-logit plot of the data. The Ki values were determined by application of the Cheng-Prusoff equation to the IC50 values, the labeled ligand concentration and the Kd of the labeled ligand.

[2] = biological target: T1, human AR; test: Co-transfection assay, AR agonist activity, CV-1 cells; type: cell-based; set-up: expressed in transfected cells; host or cells: CV-1 cells (African green monkey kidney fibroblasts), transient transfection with pRShAR; conditions: for AR Agonist CV-1 Cells Efficacy (%): percent maximal response relative to reference agonist DHT
Text: (§1) The co-transfection assay provides a method for identifying functional agonists and partial agonists which mimic, or antagonists which inhibit, the effect of native hormones and quantifying their activity for responsive IR proteins. In this regard, the co-transfection assay mimics an in vivo system in the laboratory. Importantly, activity in the co-transfection assay correlates very well with known in vivo activity, such that the co-transfection assay functions as a qualitative and quantitative predictor of a tested compounds in vivo pharmacology. See, e.g., T. Berger et al. 41 J. Steroid Biochem. Molec.
(§2) In the co-transfection assay, a cloned cDNA for an IR (e.g., human PR, AR or GR) under the control of a constitutive promoter (e.g., the SV 40 promoter) is introduced by transfection (a procedure to induce cells to take up foreign genes) into a background cell substantially devoid of endogenous IRs. This introduced gene directs the recipient cells to make the IR protein of interest. A second gene is also introduced (co-transfected) into the same cells in conjunction with the IR gene. This second gene, comprising the cDNA for a reporter protein, such as firefly luciferase (LUC), controlled by an appropriate hormone responsive promoter containing a hormone response element (HRE). This reporter plasmid functions as a reporter for the transcription-modulating activity of the target IR. Thus, the reporter acts as a surrogate for the products (mRNA then protein) normally expressed by a gene under control of the target receptor and its native hormone.
(§3) The co-transfection assay can detect small molecule agonists or antagonists of target IRs. Exposing the transfected cells to an agonist ligand compound increases reporter activity in the transfected cells. This activity can be conveniently measured, e.g., by increasing luciferase production, which reflects compound-dependent, IR-mediated increases in reporter transcription. […] To detect antagonists, the co-transfection assay is carried out in the presence of a constant concentration of an agonist to the target IR (e.g., progesterone for PR) known to induce a defined reporter signal. Increasing concentrations of a suspected antagonist will decrease the reporter signal (e.g., luciferase production). The co-transfection assay is therefore useful to detect both agonists and antagonists of specific IRs. Furthermore, it determines not only whether a compound interacts with a particular IR, but whether this interaction mimics (agonizes) or blocks (antagonizes) the effects of the native regulatory molecules on target gene expression, as well as the specificity and strength of this interaction.
(§4) CV-1 cells (African green monkey kidney fibroblasts) were cultured in the presence of Dulbecco's Modified Eagle Medium (DMEM) supplemented with 10% charcoal resin-stripped fetal bovine serum then transferred to 96-well microtiter plates one day prior to transfection.
(§5) The reporter plasmid, MTV-LUC, contains the cDNA for firefly luciferase (LUC) under control of the mouse mammary tumor virus (MTV) long terminal repeat, a conditional promoter containing an androgen response element. See e.g., Berger et al. supra. In addition, pRS-β-Gal, coding for constitutive expression of E. coli β-galactosidase (β-Gal), was included as an internal control for evaluation of transfection efficiency and compound toxicity.
(§6) Six hours after transfection, media was removed and the cells were washed with phosphate-buffered saline (PBS). […] Three to four replicates were used for each sample. Transfections and subsequent procedures were performed on a Biomek 1000 automated laboratory work station.
(§7) After 40 hours, the cells were washed with PBS, lysed with a Triton X-100-based buffer and assayed for LUC and β-Gal activities using a luminometer or spectrophotometer, respectively. For each replicate, the normalized response (NR) was calculated as: LUC response/β-Gal rate • where β-Gal rate=β-Gal·1×10^−5/β-Gal incubation time.

[3] = biological target: T1, human AR; test: Co-transfection assay, AR antagonist activity in presence of DHT, CV-1 cells; type: cell-based; set-up: expressed in transfected cells; host or cells: CV-1 cells (African green monkey kidney fibroblasts), transient transfection with pRShAR; conditions: CV-1 cells; for IC50: antagonist potency or IC50, DHT at its EC50 concentration; for AR Antagonist CV-1 Cells Efficacy (%): percent maximal inhibition, DHT at its EC50 concentration
Text: as §1, §2, §3, §4, §5, §6, §7

[4] = agonist potency or EC50, read-out: AR Agonist CV-1 Cells Potency
[5] = read-out: AR Antagonist CV-1 Cells Potency
[6] = AR Agonist CV-1 Cells Potency (nM), agonist potency or EC50
[7] = AR Antagonist CV-1 Cells Potency (nM)

Row | Compound | Ki ([1]; read-out: AR Binding Ki) | EC50 [2, 4] | AR Agonist CV-1 Cells Efficacy (%) [2] | IC50 [3, 5] | AR Antagonist CV-1 Cells Efficacy (%) [3] | Ki ([1]; AR Binding Ki (nM)) | EC50 [2, 6] | IC50 [3, 7]
1 | 5-Isopropyl-6-methyl-4-trifluoromethyl-7H-pyrrolo[3,2-f]quinolin-2(1H)-one [Compound 113] | 529 nM | > 10000 nM | na (na = not active (i.e. efficacy of <20 and potency of >10,000)) | 316 nM | 65% | – | – | –
2 | 6-(1-Methoxyethyl)-5-methyl-7-(2,2,2-trifluoroethyl)-4-trifluoromethyl-7H-pyrrolo[3,2-f]quinolin-2(1H)-one [Compound 172] | 12 nM | 19 nM | 89% | > 10000 nM | na (na = not active (i.e. efficacy of <20 and potency of >10,000)) | – | – | –
3 | 6-Ethyl-5-methyl-7-(2,2,2-trifluoroethyl)-7H-pyrrolo[3,2-f]quinolin-2(1H)-one [Compound 151] | 48 nM | 120 nM | 36% | 5.9 nM | 57% | – | – | –
4 | 6-Methyl-4-trifluoromethyl-7H-pyrrolo[3,2-f]quinolin-2(1H)-one [Compound 112] | 119 nM | > 10000 nM | na (na = not active (i.e. efficacy of <20 and potency of >10,000)) | 10 nM | 75% | – | – | –
5 | 6-Methyl-7-(2,2,2-trifluoroethyl)-4-trifluoromethyl-7H-pyrrolo[3,2-f]quinolin-2(1H)-one [Compound 152] | 67 nM | 4.9 nM | 74% | > 10000 nM | na (na = not active (i.e. efficacy of <20 and potency of >10,000)) | – | – | –
6 | O=c1cc(C(F)(F)F)c2c3c(ccc2[nH]1)N(CC(F)(F)F)C1CCCC31 (racemic) [Compound 119, (±)-4c,5,6,7,7a(cis),8-Hexahydro-8-(2,2,2-trifluoroethyl)-4-trifluoromethylcyclopentano-[g]pyrrolo[3,2-f]quinolin-2(1H)-one] | – | – | 94% | – | na (na = not active (i.e. efficacy of <20 and potency of >10,000)) | 2.6 nM | 2.5 nM | > 10000 nM
7 | O=c1cc(C(F)(F)F)c2cc3c(cc2[nH]1)C1CCCC1N3CC(F)(F)F (racemic) [Compound 120, (±)-6,6a,7,8,9,9a(cis)-Hexahydro-6-(2,2,2-trifluoroethyl)-4-trifluoromethylcyclopentano-[i]pyrrolo[2,3-g]quinolin-2(1H)-one] | – | – | 117% | – | na (na = not active (i.e. efficacy of <20 and potency of >10,000)) | 12 nM | 4.5 nM | > 10000 nM
8 | CCN1c2ccc3[nH]c(=O)cc(C(F)(F)F)c3c2C2CCCC21 (racemic) [Compound 121, (±)-4c,5,6,7,7a(cis),8-Hexahydro-8-ethyl-4-trifluoromethylcyclopentano-[g]pyrrolo[3,2-f]quinolin-2(1H)-one] | – | – | 97% | – | na (na = not active (i.e. efficacy of <20 and potency of >10,000)) | 7.6 nM | 43 nM | > 10000 nM
9 | CCN1c2cc3c(C(F)(F)F)cc(=O)[nH]c3cc2C2CCCC21 (racemic) [Compound 122, (±)-6,6a 7,8,9,9a(cis)-Hexahydro-6-ethyl-4-trifluoromethylcyclopentano-[i]pyrrolo[2,3-g]quinolin-2(1H)-one] | – | – | 59% | – | na (na = not active (i.e. efficacy of <20 and potency of >10,000)) | 21 nM | 34 nM | > 10000 nM
10 | CC1c2c(ccc3[nH]c(=O)cc(C(F)(F)F)c23)N(CC(F)(F)F)C1C (racemic) [Compound 123, (±)-5,6-Dihydro-5,6-cis-dimethyl-7-(2,2,2-trifluoroethyl)-4-trifluoromethyl-7H-pyrrolo[3,2-f]quinolin-2(1H)-one] | – | – | 104% | – | na (na = not active (i.e. efficacy of <20 and potency of >10,000)) | 14 nM | 1.4 nM | > 10000 nM
11 | CCCN1c2ccc3[nH]c(=O)cc(C(F)(F)F)c3c2C2CCCC21 (racemic) [Compound 125, (±)-4c,5,6,7,7a(cis),8-Hexahydro-8-propyl-4-trifluoromethylcyclopentano-[g]pyrrolo-[3,2-f]quinolin-2(1H)-one] | – | – | 121% | – | na (na = not active (i.e. efficacy of <20 and potency of >10,000)) | 1.3 nM | 38 nM | > 10000 nM
